# Results reported in US20120142750A1, “INDOLEAMINE 2,3-DIOXYGENASE PATHWAYS IN THE GENERATION OF REGULATORY T CELLS” (Regents of the University of Minnesota, priority 2005, published 2012).
# Strand notation (5' to 3'): a small letter for the sugar, then the base; units joined by * are phosphorothioate-linked, units joined directly phosphodiester-linked; [ ] holds rarer units or linkages, { } end groups; capitals alone tell only the bases. d = 2'-deoxy (DNA)
# How the values were obtained:
# auto-reactive T cells = conditions: cited from earlier work
# [1] = tested on: experimental autoimmune encephalomyelitis; conditions: mouse model; cited from earlier work
# Lewis Lung carcinoma = Lewis Lung carcinoma model; cited from earlier work
# [2] = tested on: P815 transfected with IDO; conditions: concomitant administration; cited from earlier work
# [3] = tested on: primed CD4+ T cells / naive CD4+ T cells; test: MLR assays of function of CpG-PDC or CpG-B cell primed CD4+ T cells; assay type: cell-based, human; conditions: KYN added to priming MLRs containing 1MT
# Experimental: In vitro priming of naive CD4+ T cells. CD4+CD45RA+ naive T cells were primed with allogeneic PDCs or irradiated B cells (30 Gy) at a 10:1 ratio (e.g., 2×10^6 naive CD4+ T cells plus 2×105 PDCs per well in 24-well plates) with ODN 2216 or ODN 2006 present in RPMI 1640 medium supplemented with 10% human AB serum. 1 MT and/or KYN were added into CpG ODN-PDC or CpG ODN-B cell mediated naive CD4+ T cell priming cultures as indicated. In some experiments, blocking Abs against CD80, CD86, HLA-DR or the control IgG Ab (R&D Systems, Minneapolis, Minn.) were added to CpG-PDC-mediated naive CD4+ T cell priming cultures at a final Ab concentration ranging from 0.1 to 10 μg/ml. After 7 days, primed T cells in cultures were harvested, assessed for their surface phenotype, intracellular Foxp3 expression, and their function in MLR assays.
# MLR assays. […] In all T cell proliferation assays, plates were incubated at 37° C. for 5 days and pulsed with 1 μCi of 3H-thymidine per well for the last 18 hours before harvesting. All determinations were carried out in triplicate and 3H-thymidine incorporation was determined.
# [4] = tested on: PDCs and allogeneic naive CD4+ T cells; test: In vitro priming of naive CD4+ T cells by allogeneic PDCs: CD4+CD25+Foxp3+ Treg generation (flow cytometry); assay type: cell-based, human
# Source text: PDC, B, and T cell isolation. Human PBMC were isolated under IRE-approved protocols from apheresis products of healthy blood donors (Memorial Blood Centers of Minnesota, Minneapolis, Minn.) by Ficoll-Paque density gradient centrifugation. Plasmascytoid dendritic cells (PDCs) were isolated from PBMC using BDCA-4 cell isolation kits and the MACS system, followed by staining and sorting to collect purified Lin-CD11c-CD123+ PDCs, as reported previously (Moseman et al., J Immunol 2004; 173:4433-4442). […] cells were isolated from PBMC using CD4 T cell isolation kits followed by positive selection with CD45RA microbeads. […] B cells were isolated from PBMC with CD19 microbeads and the MACS system to greater than 98% purity of CD19+ B cells. All cell isolations kits and microbeads were from Miltenyi Biotec (Bergisch Gladbach, Germany). Reagents. Phosphorothioate-modified type-A CpG ODN 2216: […] NO:2), type-B CpG ODN 2006: […] NO:3) (sequences are shown 5'-3'; small letters represent phosphorothioate linkage; capital letters represent phosphodiester linkage 3' of the base; bold represents CpGdinucleotides) were from Integrated DNA Technologies (Coralville, Iowa), diluted in PBS, and used at a final concentration of 1 microgran per milliliter (μg/ml). […] Kynurenine (L-KYN, Sigma-Aldrich) was used at a final concentration of 50 μM. In vitro priming of naive CD4+ T cells. CD4+CD45RA+ naive T cells were primed with allogeneic PDCs or irradiated B cells (30 Gy) at a 10:1 ratio (e.g., 2×10^6 naive CD4+ T cells plus 2×105 PDCs per well in 24-well plates) with ODN 2216 or ODN 2006 present in RPMI 1640 medium supplemented with 10% human AB serum. 1 MT and/or KYN were added into CpG ODN-PDC or CpG ODN-B cell mediated naive CD4+ T cell priming cultures as indicated. […] After 7 days, primed T cells in cultures were harvested, assessed for their surface phenotype, intracellular Foxp3 expression, and their function in MLR assays. […] Mean fluorescence intensity (MFI) and positive cell percentages of stained cells were determined by flow cytometry.
# OT-I and A1 T cells = test: Bystander-suppression assays (TDLN IDO+ DCs, OT-I, Tregs, A1 bystander cells); assay type: cell-based, mouse
# Experimental: Isolation of tumor-draining lymph node DCs.
# Bystander-suppression assays. All experiments were repeated 3-5 times unless otherwise indicated. OT-I cells were sorted as CD8^+ spleen cells, gated on the CD11c^NEGB220^NEG fraction to exclude DCs. Sorted DCs from TDLN were mixed with 1×10^5 responder cells at a 1:40 ratio in V-bottom culture wells (Nunc). […] Sorted CD4^+ A1 cells (1×10^5) and CD11c^+ DCs (1:40 ratio) from normal CBA spleen were added as bystander cells. […] For transwell assays, 96-Multiwell insert plates (1 uM pore size, BD Falcon) were used and the number of cells in all groups was doubled.
# Feeder layer. Plasmacytoid DCs and Tregs have been reported to require survival factors to maintain viability and function in vitro.
# Readouts for T cell proliferation. […] After 72 hours, assays were stained for CD4 vs CD8 and CFSE fluorescence analyzed gated on CD4^+ (A1) and CD8^+ (OT-I) populations.
# Anti-CD3 proliferation and preactivation assays. […] For pre-activation studies, 2×10^4 Tregs were cultured with 1×10^5T-depleted spleen cells plus 0.1 ug/ml αCD3 antibody and 200 U/ml IL-2 (R&D Systems) for 48 hours.
# PDCs = test: Surface expression of CD80, CD86, HLA-DR on PDCs (flow cytometry); assay type: cell-based, human; conditions: CpG ODN stimulation 48 hours
# Source text: PDC, B, and T cell isolation. Human PBMC were isolated under IRE-approved protocols from apheresis products of healthy blood donors (Memorial Blood Centers of Minnesota, Minneapolis, Minn.) by Ficoll-Paque density gradient centrifugation. Plasmascytoid dendritic cells (PDCs) were isolated from PBMC using BDCA-4 cell isolation kits and the MACS system, followed by staining and sorting to collect purified Lin-CD11c-CD123+ PDCs, as reported previously (Moseman et al., J Immunol 2004; 173:4433-4442). CD4+CD45RA+ naïve T cells were isolated from PBMC using CD4 T cell isolation kits followed by positive selection with CD45RA microbeads. The purity of naïve CD4+ T cells was greater than 95% for CD4+CD45RA+ expression and less than 0.5% for CD25+ expression. B cells were isolated from PBMC with CD19 microbeads and the MACS system to greater than 98% purity of CD19+ B cells. All cell isolations kits and microbeads were from Miltenyi Biotec (Bergisch Gladbach, Germany).
# Flow Cytometry. Fluorescent antibodies (Abs) against human CD3, CD4, CD11c, CD19, CD25, CD40, CD45, CD45RA, CD45RO, CD80, CD86, CD123, HLA-DR, lineage (Lin) markers, and isotype control Abs were from BD Biosciences (San Diego, Calif.). […] Mean fluorescence intensity (MFI) and positive cell percentages of stained cells were determined by flow cytometry.
# IDO protein in PDCs = test: Western blot for IDO protein in cultured PDCs; assay type: cell-based, human; conditions: 48 hours culture with CpG ODN
# Experimental: Western blots. Protein lysates were prepared from 2×10^5 fresh or cultured PDCs or B cells. Western blot was performed with antibody specific for IDO protein
# splenic Tregs = test: Flow cytometry of CHOP and FoxP3 in splenic Tregs of treated mice; assay type: in vivo, mouse; conditions: wild-type mice
# Experimental: (§1) CpG Oligonucleotides. CpG-ODNs (CpG no. 1826, […]; (SEQ ID NO:4) and sequence matched non-CpG-B no. 2138, […] (SEQ ID NO:5)) with fully phosphorothioate backbones were purchased from Coley Pharmaceuticals. Mice were injected with relatively high doses of ODNs (50 μg/mouse, i/v) as described (Mellor et al. J Immunol 2005; 175:5601-5605).
# Analytical flow cytometry. Intracellular CHOP staining was performed as described (Munn et al. (2005) Immunity 22:1-10), using antibody sc-7351 (Santa Cruz Biotechnology, Santa Cruz, Calif.).
# BM3 T cells [5] = test: Ex vivo T cell suppression assays with sorted Tregs from treated mice; assay type: in vivo, mouse
# Experimental: as §1
# 1-methyl-[D]-tryptophan (1 mT). 1 mT (catalog number 45, 248-3, Sigma) was prepared as a 20 mM stock solution in 0.1 N NaOH, adjusted to pH 7.4, and stored at −20° C. protected from light. For in vitro use, 1 mT was added to MLRs to a final concentration of 100 μM. For in vivo treatment, slow-release polymer pellets (*5 mg/day) containing 1 mT or vehicle alone were inserted under the dorsal skin as described (Munn et al. Science 1998; 281:1191-1193) 24 hours before CpG treatment.
# Preparative flow cytometry to sort CD4+ T cells subsets. CD4+ T cell subsets were purified using a Mo-Flo cytometer as described (Mellor et al. J Immunol 2005; 175:5601-5605; Munn et al. Immunity 2005; 22:1-10).
# Ex vivo T cell suppression assays. Suppression assays were performed by adding sorted CD4+ cells to T cell proliferation assays (72 hour thymidine incorporation assays) containing responder H-2K^b-specific splenocytes from BM3 TCR transgenic mice (nylon-wool enriched) and CD11c+ splenocytes (AutoMacs enriched) from CBK (H-2K^b transgenic CBA) mice prepared as described (Mellor et al. J Immunol 2005; 175:5601-5605).
# BM3 T cells [6] = test: Co-adoptive transfer of Tregs and BM3 T cells into CBK recipients; assay type: in vivo, mouse; conditions: 96 hours
# Experimental: Co-Adoptive Transfer. Purified (Mo-Flo sorted) CD4+CD25+ Tregs were prepared from spleens of CBK donor mice treated 24 hours previously with either 50 μg CpG or non-CpG. Tregs (1×10^6/recipient) were mixed with nylon-wool enriched BM3 responder T cells (5×10^6/recipient) and co-injected into CBK recipients (2-3 mice/group). Positive controls were CBK mice receiving BM3 T cells without Tregs; negative controls were CBA mice (lacking target antigen) receiving BM3 T cells. After 96 hours, mice were sacrificed and spleen cells stained with antibodies against CD8 (PerCP), CD25 (APC), H2K^b (PE) and biotinylated Ti98 (BM3 anti-clonotypic antibody, visualized with streptavidin APC (Tarazona et al. (1996) International Immunology 8:351-358). Except for Ti98, all antibodies were from Pharmingen (San Diego, Calif.).
molecule,measurement,setting,value
"COc1ccc(C=CC(=O)Nc2ccccc2C(=O)O)cc1OC [3,4-DAA, N-(3,4,-Dimethoxycinnamoyl)anthranilic acid]",inflammatory cytokine production by auto-reactive T cells,auto-reactive T cells,inhibit inflammatory cytokine production
same,paralysis in experimental autoimmune encephalomyelitis,[1],reverse paralysis
Nc1c(O)cccc1C(=O)O [3-hydroxyanthranilic acid],inflammatory cytokine production by auto-reactive T cells,auto-reactive T cells,inhibit inflammatory cytokine production
same,paralysis in experimental autoimmune encephalomyelitis,[1],reverse paralysis
"Cn1cc(C[C@H](N)C(=O)O)c2ccccc21 [Inhibitor 1-MT, 1-methyl-tryptophan]",tumor outgrowth,Lewis Lung carcinoma,significantly delayed tumor outgrowth
same,IDO-mediated prevention of P815 rejection by pre-immunized hosts,[2],substantially reversed
"Nc1ccccc1C(=O)CC(N)C(=O)O (stereo not shown) [KYN, Kynurenine]",functional suppressor activity of PDC-primed T cells in MLR,[3],restored the generation of functional suppressor activity
same,hyporesponsiveness of primed T cells to alloantigen stimulation in MLR,[3],restored
same,CD4+CD25+Foxp3+ Treg generation in priming MLRs containing 1MT,"[4]; KYN 50 μM added with 1MT 250 μM, ODN 2216-PDC, day 7",restored CD4+CD25+Foxp3+ Treg generation
same,bystander suppression with excess kynurenine when IDO blocked with 1MT,OT-I and A1 T cells; 1MT+25 uM kynurenine,did not recapitulate suppression
N[C@@H](Cc1c[nH]c2ccccc12)C(=O)O [tryptophan],"IDO-induced bystander suppression, effect of added agent","OT-I and A1 T cells; not in transwells, thymidine incorporation/CFSE, tryptophan 10× (250 uM)",abrogated suppression
ODN 2216: Phosphorothioate-modified type-A CpG ODN gGGGACGATCGTCgggggG (SEQ ID NO:2) (DNA dG*dGdGdGdAdCdGdAdTdCdGdTdCdG*dG*dG*dG*dG*dG),frequency of PDC-induced CD4+CD25+Foxp3+ Tregs,"[4]; day 7 of cultures, CpG ODN 1 μg/ml, mean±SD, 5.7±3.1% without CpG ODN",21.6±5.2%
same,"cell surface expression of CD80, CD86, HLA-DR on PDCs",PDCs,upregulate cell surface expression
same,IDO expression of PDCs during culture,IDO protein in PDCs,sustained their IDO expression
non-CpG: sequence matched non-CpG ODN TCCATGAGCTTCCTGAGCTT (SEQ ID NO:5) (DNA dT*dC*dC*dA*dT*dG*dA*dG*dC*dT*dT*dC*dC*dT*dG*dA*dG*dC*dT*dT),number of CHOP+ Tregs over basal levels,splenic Tregs,only slightly increased
same,suppressor functions of purified Tregs from IDO-KO mice,BM3 T cells [5]; IDO-KO mice,no significant increase in suppressor functions
same,suppression of BM3 T cell proliferation by purified Tregs from treated mice,"BM3 T cells [5]; mice treated 24 hours, 50 μg/mouse i/v, IDO-WT, 72 hour thymidine incorporation",did not suppress BM3 proliferation
same,spleen tissue pathology after co-transfer of Tregs from treated donor mice,BM3 T cells [6],did not prevent extensive tissue pathology
same,clonal expansion of BM3 T cells in vivo after co-transfer of Tregs from treated donor mice,BM3 T cells [6]; donors treated 24 hours with 50 μg,did not inhibit
